Measurements published in ChEMBL document CHEMBL1156132, “2-Aminopyrazolo[1,5-a]pyrimidines as potent and selective inhibitors of JAK2” (Bioorg Med Chem Lett, 2009).

Experiments:
Settings in all cases: Sprague-Dawley, rat, iv, 1 mg/kg
in vivo [1] = test: in vivo
Description: Half life in Sprague-Dawley rat at 1 mg/kg, iv

in vivo [2] = test: in vivo; remark: listed apart in the source
in vivo [3] = test: in vivo; remark: listed apart in the source
Description: Clearance in Sprague-Dawley rat at 1 mg/kg, iv

half-life (in vivo [1]): 54 min | Vd (in vivo [2]): 5.1 L/kg | clearance (in vivo [3]): 104 mL/min/kg
Structure (SMILES): C[C@@H](Nc1cc(-c2c(N)nn3cccnc23)ncn1)c1ccc(F)cc1
